Data reported in US11084795B2, “CFTR regulators and methods of use thereof” (The Regents of the University of California, priority 2015, dated 2021).

Assays:
[1] = Ocular toxicity after chronic topical dosing (slit-lamp, lissamine green staining); assay type: in vivo; conditions: chronically treated mice
Description: (§1) To assess corneal epithelial disruption, 5 μL of lissamine green (LG) dye (1%) was applied to the ocular surface of isofluorane-anesthetized mice. Photographs of the eye were taken using a Nikon Digital camera adapted to an Olympus Zoom Stereo Microscope (Olympus, Center Valley, Pa., USA). Each corneal quadrant was scored on a 3-point scale by one blinded, trained observer, with the extent of staining in each quadrant classified as: 0, no staining; 1, sporadic (involving <25% of the total surface) staining; grade 2, diffuse punctate staining (25-75%); and grade 3, coalesced punctate staining (>75%). The total grade is reported as the sum of scores from all four quadrants, ranging from 0 to 12.
as §1, with “Lissamine green staining. To” for “To”, “(≥75%).” for “(>75%).”

[2] = test system: CFTR at the ocular surface; assay: Ocular surface potential difference (PD) in living mice; assay type: in vivo, mouse; conditions: wild-type mice, 1-10 μM
Description: Open-circuit transepithelial PD were measured continuously in anesthetized mice in response to serial perfusions of different solutions over the ocular surface, as described (21). Mice were anesthetized with Avertin (2,2,2-tribromoethanol, 125 mg/kg intraperitoneal, Sigma-Aldrich, St. Louis, Mo., USA), and core temperature was maintained at 37° C. using a heating pad. Eyes were oriented with the cornea and conjunctiva facing upward and exposed by retracting the eyelid with cross-action forceps. Solutions were isosmolar (320±10 mOsM; compositions provided in ref. 21) and contained 10μ[…] indomethacin to prevent CFTR activation by prostaglandins. The ocular surface was perfused at 6 mL/min through plastic tubing using a multireservoir gravity pinch-valve system (ALA Scientific, Westbury, N.Y., USA) and variable-flow peristaltic pump (medium flow model; Fisher Scientific, Fair Lawn, N.J., USA). A probe catheter was fixed 1 mm above the cornea using a micropositioner and a suction cannula was positioned 3 mm from the orbit. The measuring electrode was in contact to the perfusion catheter and connected to a high-impedance voltmeter (IsoMilivolt Meter; WPI). The reference electrode was grounded via a winged 21-gauge needle filled with isosmolar saline, and inserted subcutaneously in the abdomen. Measuring and reference electrodes consisted of Ag/AgCl with 3 M KCl agar bridges.
An open-circuit potential difference (PD) method developed in our lab was used to evaluate compound activity at the ocular surface in vivo, as depicted in FIG. 3A (21). Cl^− channel function was quantified by measuring PD during continuous perfusion of the ocular surface with a series of solutions that imposed a transepithelial Cl^− gradient and contained various channel agonists and/or inhibitors. The ocular surface was first perfused with isosmolar saline to record the baseline PD. Amiloride was then added to the perfusate, followed by exchange to a low Cl^− solution in which Cl^− with an impermeant anion, gluconate. These maneuvers allow for direct visualization of CFTR activation in response to addition of candidate CFTR activators.
Ocular surface potential difference measurements. Open-circuit transepithelial PD were measured continuously in anesthetized mice in response to serial perfusions of different solutions over the ocular surface, as described (21). Mice were anesthetized with Avertin (2,2,2-tribromoethanol, 125 mg/kg intraperitoneal, Sigma-Aldrich, St. Louis, Mo., USA), and core temperature was maintained at 37° C. using a heating pad. Eyes were oriented with the cornea and conjunctiva facing upward and exposed by retracting the eyelid with cross-action forceps. […]

[3] = In vitro metabolic stability in mouse liver microsomes; assay type: in vitro ADME; conditions: NADPH
Description: CFTRact-J027 (5 μM) was incubated for specified times at 37° C. with mouse liver microsomes (1 mg protein/ml; Sigma-Aldrich) in potassium phosphate buffer (100 mM) containing 1 mM NADPH, as described. The mixture was then chilled on ice, and 0.5 ml of ice-cold ethyl acetate was added. Samples were centrifuged for 15 min at 3000 rpm, the supernatant evaporated to dryness, and the residue was dissolved in 100 μL mobile phase (acetonitrile:water, 3:1) for LC/MS and assayed as described above.
In vitro metabolic stability. CFTRact-J027 (5 μM) was incubated for specified times at 37° C. with mouse liver microsomes (1 mg protein/ml; Sigma-Aldrich) in potassium phosphate buffer (100 mM) containing 1 mM NADPH, as described. The mixture was then chilled on ice, and 0.5 ml of ice-cold ethyl acetate was added. Samples were centrifuged for 15 min at 3000 rpm, the supernatant evaporated to dryness, and the residue was dissolved in 100 μL mobile phase (acetonitrile:water, 3:1) for LC/MS and assayed as described above.
In vitro metabolic stability. Test compound (at 5 μM) was incubated for specified times at 37° C. with mouse liver microsomes (1 mg protein/ml; Sigma-Aldrich, St. Louis, Mo.) in potassium phosphate buffer containing 1 mM NADPH, as described. Following ethyl acetate extraction, non-metabolized parent compound was assayed by LC/MS.

## Nc1ccc([N+](=O)[O-])cc1-c1nc2ccccc2n(Cc2ccccc2)c1=O [CFTRact-J027, 3-(2-amino-5-nitrophenyl)-1-benzylquinoxalin-2(1H)-one]
[1]
  LG staining of cornea and conjunctiva: no corneal or conjunctival epithelial disruption
[1]; topical three times daily, two weeks
  ocular toxicity (slit-lamp evaluation): no signs of ocular toxicity
[2]
  change in ocular surface PD: large hyperpolarizations
[3]; mouse hepatic microsomes
  compound metabolized at 60 min: ~100%
[3]; mouse liver microsomes
  original compound remaining at 60 min: 7%
[3]; mouse, liver microsomes, 5 μM, read-out: elimination half-life in mouse liver microsomes
  half-life at 5 μM: 21 min
